Test [1] deals with STAT3 consensus sequence (5′-GACATTGC-3′). The test is described as follows: HPLC assay of DNA adduct formation. The settings on record: 4:1 ligand:oligonucleotide, room temperature, UV 254 nm. It counts as binding. An excerpt: (§1) The interactions of C1-linked PBD core compound (42), […] C1-linked PBD dimer compound (51) were studied with duplex transcription factor consensus sequences. For the C1-linked PBD core compound (42) and C1-linked PBD dimer compound (51) the study used a STAT3 consensus sequence (5′-GACATTGC-3′). Whereas for the C1-linked PBD monomer compound (49), an NF-KB consensus sequence (5′-GGGACAGCCC-3′) was used in the study. The interactions of each of the three compounds were studied with an HPLC assay utilizing a X-bridge MS […] Oligonucleotide Separation Technology (OST) column (2.3×50 mm) and a gradient of 40% acetonitrile/water and 100 mM TEAB ([…])/water as mobile phase with a flow rate of 0.5 mL/min and UV detection at 254 nm. A 4:1 molar ratio of ligand:oligonucleotide was used, with each single-stranded oligonucleotide dissolved in 1M ammonium acetate to form stock solutions of 1 mM. The oligonucleotides were initially annealed by heating their 1 mM solutions to 70° C. for 10 mins followed by gradual cooling over 8 hours and storage overnight at −20° C. Working solutions of oligonucleotides of 25 μM were then prepared by diluting the annealed stock solutions with 100 mM ammonium acetate. The ligands were dissolved in DMSO to form a stock solution of 10 mM which was stored at −20° C. for no longer than four months. Working solutions of the drug of 100 μM were prepared by diluting the stock solution with 100 mM ammonium acetate. The working solutions of the ligands were added to the working solution the oligonucleotides at RT, and the mixture incubated for different time intervals at room temperature. […] The chromatograms for HPLC assays using C1-linked PBD core (42), monomer (49) and dimer (51) compounds are shown in FIGS. 7, 8 and 9 respectively.

For test [2], the system named is MDA MB231 (triple negative human breast cancer). Briefly: Cytotoxicity by MTT assay. The class given is cell-based. The settings on record: 72 hours exposure, MDA MB 231. Here is the method: MDA MB231 (triple negative human breast cancer) was obtained from the American Type Culture Collection. The cell-line was maintained in monolayer culture in 75 cm^2 flasks (TPP, Switzerland) under a humidified 5% CO2 atmosphere at 37° C. The MDA MB231 cell line was maintained in high glucose (Dulbecco's Modified Eagle Medium) DMEM (4.5 g\l; Invitrogen), foetal bovine serum (10%, Biosera UK), non-essential amino acids (ix; Invitrogen), L-glutamine (2 mM; Invitrogen) and Penicillin-Streptomycin (1% v/v, Invitrogen). For passaging, cells were washed with PBS [Phosphate-Buffered Saline] […] For seeding, cells were counted using a Neubauer haemocytometer (Assistant, Germany) by microscopy (Nikon, USA) on a non-adherent suspension of cells that were washed in PBS, trypsinised, centrifuged at 8° C. at 8000 rpm for 5 min and re-suspended in fresh medium.
The cells were grown in normal cell culture conditions at 37° C. under a 5% CO2 humidified atmosphere using appropriate medium. […] After 72 h of continuous exposure to each compound, the cytotoxicity was determined using the 3-(4,5-Dimethylthiazol-2-yl)-2,5-diphenyltetrazolium bromide (MTT) (Lancaster Synthesis Ltd, UK) colorimetric assay. Absorbance was quantified by spectrophotometry at λ=570 nm (Envision Plate Reader, PerkinElmer, USA). IC50 values were calculated by a dose-response analysis using the Prism GraphPad Prism® software. […]
In general terms: Formazan colour is commonly taken as a measure of viable cells.

For test [3], the system named is NF-KB consensus sequence (5′-GGGACAGCCC-3′). The test is described as follows: HPLC assay of DNA adduct formation. The class given is binding. The following applies: 4:1 ligand:oligonucleotide, room temperature, UV 254 nm.
Description: as §1

Test [4] relates to cancer cell lines. The settings on record: cited from earlier work.

“Also recorded” adds a separate entry of the source.

Data on 4 compounds can be found in patent US9999625B2, “Pyrrolobenzodiazepine compounds” (FEMTOGENIX LIMITED, priority 2014, dated 2018).

As a reminder, the IC50 is the concentration that inhibits the measured activity by half.

Consider `COc1cc2c(cc1OC)C(=O)N1CC[C@H](O)[C@H]1C=N2` [Compound 42, (1S,11aR)-1-Hydroxy-7,8-dimethoxy-1,2,3,11a-tetrahydro-5H-benzo[e]pyrrolo[1,2-a][1,4]diazepin-5-one], for which the “DNA adduct formation (HPLC chromatogram)” value in test [1] is “evidence of DNA adduct formation; also recorded: interacted with the DNA consensus sequence to form adducts”.

In test [2], `COC(=O)c1cc(-c2ccc(NC(=O)c3nc(NC(=O)CO[C@H]4CCN5C(=O)c6cc(OC)c(OC)cc6N=C[C@H]45)cn3C)cc2)cn1C` [Compound 49, Methyl 4-(4-(4-(2-(((1S,11aR)-7,8-dimethoxy-5-oxo-2,3,5,11a-tetrahydro-1H-benzo[e]pyrrolo[1,2-a][1,4]diazepin-1-yl)oxy)acetamido)-1-methyl-1H-imidazole-2-carboxamido)phenyl)-1-methyl-1H-pyrrole-2-carboxylate] gave an IC50 of 36 ± 2.3 nM. Also, the “DNA adduct formation (HPLC chromatogram)” value in test [3] is recorded as “evidence of DNA adduct formation; also recorded: interacted with the DNA consensus sequence to form adducts”.

For `COc1cc2c(cc1OC)C(=O)N1CC[C@H](OCCCO[C@H]3CCN4C(=O)c5cc(OC)c(OC)cc5N=C[C@H]34)[C@H]1C=N2` [Compound 51, (1S,1′S)-1,1′-(Propane-1,3-diylbis(oxy))bis(7,8-dimethoxy-1,2,3,11a-tetrahydro-5H-benzo[e]pyrrolo [1,2-a][1,4]diazepin-5-one)], the IC50 in test [2] came to 236 ± 27 nM. Besides, in test [1], the “DNA adduct formation (HPLC chromatogram)” value is given as “evidence of DNA adduct formation; also recorded: interacted with the DNA consensus sequence to form adducts”.

Take `COC(=O)c1cc(-c2ccc(NC(=O)c3nc(NC(=O)CCCOc4cc5c(cc4OC)C(=O)N4CCC[C@H]4C=N5)cn3C)cc2)cn1C` [KMR-28-39]: in test [4], the “activity against some cancer cell lines” value is on record as “femtomolar activity”.
